Results published in patent publication US20210177847A1, “Compounds for treatment of diseases related to DUX4 expression” (Facio Intellectual Property B.V., priority 2017, published 2021).

target: CK1ε (Homo sapiens, UniProt P49674); experiment: CK1ε inhibition IC50; assay type: biochemical; conditions: Table 3; read-out: CK1 e IC50
Sequence (P49674 whole entry): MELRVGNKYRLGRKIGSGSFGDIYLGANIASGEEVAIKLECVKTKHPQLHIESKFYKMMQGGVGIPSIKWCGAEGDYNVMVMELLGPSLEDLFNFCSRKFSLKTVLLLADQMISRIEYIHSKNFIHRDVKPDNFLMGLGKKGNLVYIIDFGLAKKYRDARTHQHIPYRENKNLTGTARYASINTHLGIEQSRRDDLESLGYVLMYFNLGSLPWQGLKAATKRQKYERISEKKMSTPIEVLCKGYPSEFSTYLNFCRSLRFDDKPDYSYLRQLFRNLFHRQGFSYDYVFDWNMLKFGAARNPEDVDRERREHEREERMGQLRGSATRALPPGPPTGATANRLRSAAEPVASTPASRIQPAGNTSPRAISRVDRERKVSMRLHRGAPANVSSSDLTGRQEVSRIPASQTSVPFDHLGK

SMILES | IC50 [nM]
CNCc1cc(-c2cn(C)nc2-c2ccc(F)cc2)ccn1 [Compound I] | 89
Fc1ccc(-c2nc3ccc(N4CCNCC4)nn3c2-c2ccncc2)cc1 [Compound H] | 9.41
COCCN1Cc2nccc(-c3cn(C)nc3-c3ccc(F)cc3)c2C1=O [Compound G] | 92.1

target: CK1δ (Homo sapiens, UniProt P48730); experiment: CK1δ inhibition IC50; assay type: biochemical; conditions: Table 3; read-out: CK1 d IC50
Sequence (P48730 whole entry): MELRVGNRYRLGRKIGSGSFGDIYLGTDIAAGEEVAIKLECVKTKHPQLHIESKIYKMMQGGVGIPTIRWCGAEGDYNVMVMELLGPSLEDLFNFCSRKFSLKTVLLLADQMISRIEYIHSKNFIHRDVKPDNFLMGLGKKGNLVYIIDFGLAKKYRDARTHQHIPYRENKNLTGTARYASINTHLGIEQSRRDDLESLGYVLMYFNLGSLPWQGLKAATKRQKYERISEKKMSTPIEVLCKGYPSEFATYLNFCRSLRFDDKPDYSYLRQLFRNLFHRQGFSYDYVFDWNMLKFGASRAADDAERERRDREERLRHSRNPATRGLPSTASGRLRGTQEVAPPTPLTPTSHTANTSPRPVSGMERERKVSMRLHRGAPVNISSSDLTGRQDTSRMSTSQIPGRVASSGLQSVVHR

SMILES | IC50 [nM]
CNCc1cc(-c2cn(C)nc2-c2ccc(F)cc2)ccn1 [Compound I] | 57.7
Fc1ccc(-c2nc3ccc(N4CCNCC4)nn3c2-c2ccncc2)cc1 [Compound H] | 16.5
COCCN1Cc2nccc(-c3cn(C)nc3-c3ccc(F)cc3)c2C1=O [Compound G] | 41.8

test system: DUX4; experiment: High-content immunocytochemistry assay of endogenous DUX4 expression in differentiating primary FSHD myotubes; assay type: cell-based, human; conditions: Homo sapiens, Myotube, 15 h, read-out: half maximal effective concentration (EC50), DUX4 repression
Text: A quantitative assay readout was developed based on script-based image analysis. Cells were stained according to example 1, also using DAPI to detect myonuclei and an antibody against myosin heavy chain (MHC) to visualize the formation of myotubes. To analyse the images, an automated script was developed, enabling the detection of nuclei, myotube borders and DUX4 signals, with the script also detecting artefacts to reduce false positive signals. The script enabled multiple validated readouts including the number of DUX4 positive nuclei and nuclei clusters, the fusion index, myotube area, myotube width and myotube skeleton length (see FIG. 2). Additionally, the total nuclei count was included as a measure of cell loss or compound toxicity. The script was validated by evaluating endogenous DUX4 expression in the primary myotubes, and results were in line with literature values, with the number of DUX4 expressing nuclei being <0.5%.
A compound library containing approximately 5000 annotated compounds was screened in the high-content assay. For this purpose, primary myoblasts were seeded in 384 well plates after which the growth medium was replaced with differentiation medium. After 3 days of differentiation, cells were treated with library compounds (in duplicate on different screening plates) for 15 h, after which they were fixed and stained with antibodies against DUX4, antibodies against myosin heavy chain (MHC), and with DAPI (4′,6-diamidino-2-phenylindole). Script-based analysis provided readouts for DUX4 expression (count of DUX4-positive nuclei or DUX4 intensity) and for potential toxicity (fusion index and nuclei count). The majority of the approximately 200 hits was confirmed in an experiment using the same assay and 5 replicates. These compounds were selected for further concentration-response profiling.
The DUX4 repression of CK1 inhibitors was assayed following the protocol of Example 2, illustrated in FIG. 4A. […] Compounds were incubated with primary FSHD cells for 15 hours, as indicated by the arrow in FIG. 4A.

SMILES | EC50 [nM]
CN1Cc2nccc(-c3cn(C)nc3-c3ccc(F)cc3)c2C1=O [Compound E] | 1900 to 3100
CNCc1cc(-c2cn(C)nc2-c2ccc(F)cc2)ccn1 [Compound I] | 3100 to 5500
Fc1cccc(-n2cnc3c(NCc4nc5ccc(F)c(F)c5[nH]4)nc(N4CCOCC4)nc32)c1 [SR-3029, reference compound] | 50 to 120

same assay, conditions: Homo sapiens, Myotube; primary FSHD cells, compounds incubated 15 hours; Table 3; read-out: half maximal effective concentration (EC50), DUX4 repression

SMILES | EC50 [nM]
CN1CCN(c2ccc3nc(-c4ccc(F)cc4)c(-c4ccncc4)n3n2)CC1 [Compound B] | 2000
Cn1cc(-c2ccnc3c2C(=O)N(C2CCOCC2)C3)c(-c2ccc(F)cc2)n1 [Compound F] | 1500 to 2600
CC1(C)CN(c2ccc3nc(-c4ccc(F)cc4)c(-c4ccncc4)n3n2)CCN1 [Compound A] | 40 to 50
CNc1nccc(-c2c(-c3ccc(F)cc3)ncn2C2CCN(Cc3ccon3)CC2)n1 [Compound C] | 1100 to 1400
Fc1ccc(-c2nc(-c3c(F)cccc3F)[nH]c2-c2ccncc2)cc1 [Compound O] | 710
Fc1ccc(-c2nc3ccc(N4CCNCC4)nn3c2-c2ccncc2)cc1 [Compound H] | 10 to 46
COCCN1Cc2nccc(-c3cn(C)nc3-c3ccc(F)cc3)c2C1=O [Compound G] | 1700 to 4500

Results, then the compound that gave them:

EC50 [nM] | SMILES
310 | Nc1nccc(-c2c(-c3ccc(F)cc3)ncn2C2CCN(Cc3ccon3)CC2)n1 [PF-5006739, reference compound]
430 | Nc1nccc(-c2c(-c3ccc(F)cc3)ncn2C2CCCCC2)n1 [PF-670462, reference compound]

same assay, conditions: irrespective of treatment time (15 h or 72 h); not shown

SMILES | effect on DUX4 expression
COc1cc(OC)c2c(=O)[nH]c(-c3cc(C)c(OCCO)c(C)c3)nc2c1 [RVX-208, reference compound] | did not show any effect on DUX4 expression

target: p38α (Homo sapiens, UniProt Q16539); experiment: p38α inhibition IC50; assay type: biochemical; conditions: Table 3; read-out: p38a IC50
Sequence (Q16539 whole entry): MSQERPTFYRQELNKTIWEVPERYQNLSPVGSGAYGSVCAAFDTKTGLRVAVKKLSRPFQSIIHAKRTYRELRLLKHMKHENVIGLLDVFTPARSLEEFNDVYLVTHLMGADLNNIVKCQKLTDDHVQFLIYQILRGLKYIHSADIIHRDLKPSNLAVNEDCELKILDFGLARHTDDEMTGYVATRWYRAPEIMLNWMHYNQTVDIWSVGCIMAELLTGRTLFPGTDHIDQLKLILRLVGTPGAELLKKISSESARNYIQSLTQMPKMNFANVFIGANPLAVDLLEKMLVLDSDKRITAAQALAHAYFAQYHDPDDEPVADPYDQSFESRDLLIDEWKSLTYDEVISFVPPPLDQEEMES

SMILES | IC50 [nM]
CNCc1cc(-c2cn(C)nc2-c2ccc(F)cc2)ccn1 [Compound I] | 3070
Fc1cccc(-n2cnc3c(NCc4nc5ccc(F)c(F)c5[nH]4)nc(N4CCOCC4)nc32)c1 [SR-3029, reference compound] | 1000
Fc1ccc(-c2nc3ccc(N4CCNCC4)nn3c2-c2ccncc2)cc1 [Compound H] | 14.8
COCCN1Cc2nccc(-c3cn(C)nc3-c3ccc(F)cc3)c2C1=O [Compound G] | 712

target: CK1α (Homo sapiens, UniProt P48729); experiment: CK1α inhibition IC50; assay type: biochemical; conditions: Table 3; read-out: CK1 a IC50
Sequence (P48729 whole entry): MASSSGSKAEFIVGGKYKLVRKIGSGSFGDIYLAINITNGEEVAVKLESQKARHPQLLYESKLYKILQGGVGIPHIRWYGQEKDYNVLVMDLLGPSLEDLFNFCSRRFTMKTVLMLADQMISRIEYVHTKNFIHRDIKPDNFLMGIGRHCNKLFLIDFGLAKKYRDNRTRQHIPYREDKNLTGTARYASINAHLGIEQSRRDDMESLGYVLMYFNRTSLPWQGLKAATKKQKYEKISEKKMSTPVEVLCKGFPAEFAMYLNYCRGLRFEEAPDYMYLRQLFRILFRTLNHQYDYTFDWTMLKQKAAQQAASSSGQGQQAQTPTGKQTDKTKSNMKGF

SMILES | IC50 [nM]
CNCc1cc(-c2cn(C)nc2-c2ccc(F)cc2)ccn1 [Compound I] | 1760
Fc1cccc(-n2cnc3c(NCc4nc5ccc(F)c(F)c5[nH]4)nc(N4CCOCC4)nc32)c1 [SR-3029, reference compound] | 1000
Fc1ccc(-c2nc3ccc(N4CCNCC4)nn3c2-c2ccncc2)cc1 [Compound H] | 22
COCCN1Cc2nccc(-c3cn(C)nc3-c3ccc(F)cc3)c2C1=O [Compound G] | 2590
